The values below come from patent publication US11390604B2 (Hoffmann-La Roche Inc., priority 2019, dated 2022).

The test concerns Acinetobacter baumannii ATCC 17961. Kind of test: Antimicrobial susceptibility testing: 90% growth inhibitory concentration (IC90) determination. In kind it is cell-based. As to conditions: ATCC17961, Acinetobacter baumannii ATCC 17961, Iso-Sensitest broth, read-out: ATCC 17961 IC90. A digest of the protocol: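 Growth was followed kinetically by OD600 at 20-min intervals for 16 h at 35±2 °C, with ~5×10^5 CFU/ml in Iso-Sensitest broth. Compounds were tested as twofold dilutions (e.g. 50–0.097 μM final). The concentration giving 90% inhibition of log-phase growth was reported.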

Structures are written as SMILES. Where a name gives a salt, the structure may show the parent alone.

With `CN(C)CCN(C)C1CCN(C(=O)c2ccc(NC(=O)c3ncc(-c4cn(C5CC5)nc4C(F)(F)F)n3C)cc2Cl)CC1` [Example 357, N-(3-chloro-4-(4-((2-(dimethylamino)ethyl)(methyl)amino)piperidine-1-carbonyl)phenyl)-5-(1-cyclopropyl-3-(trifluoromethyl)-1H-pyrazol-4-yl)-1-methyl-1H-imidazole-2-carboxamide], the IC90 turned out to be 466 nM.

`Cn1c(-c2cn(CC#N)nc2C(F)(F)F)cnc1C(=O)Nc1ccc(C(=O)N[C@H]2C[C@@H](NC(=O)N3CCC(CN)C3)C2)c(Cl)c1` (stereo partly drawn) [Example 359, N-[4-[[3-[[3-(aminomethyl)pyrrolidine-1-carbonyl]amino]cyclobutyl]car-bamoyl]-3-chloro-phenyl]-5-[1-(cyanomethyl)-3-(trifluoromethyl)pyrazol-4-yl]-1-methyl-imidazole-2-carboxamide; formic acid]: the IC90 turned out to be 467 nM.

Take `CCn1cc(-c2cnc(C(=O)Nc3ccc(C(=O)N4CCC(CCC(C)(C)N(C)C)CC4)c(Cl)c3)n2C)c(C(F)(F)F)n1` [Example 360, N-(3-chloro-4-(4-(3-(dimethylamino)-3-methylbutyl)piperidine-1-carbonyl)phenyl)-5-(1-ethyl-3-(trifluoromethyl)-1H-pyrazol-4-yl)-1-methyl-1H-imidazole-2-carboxamide]: the IC90 was 474 nM.

`Cn1c(-c2cn(CC#N)nc2C(F)(F)F)cnc1C(=O)Nc1ccc(C(=O)N[C@H]2C[C@@H](NC(=O)N3CCCC3CN)C2)c(Cl)c1` (stereo partly drawn) [Example 361, N-[4-[[3-[[2-(aminomethyl)pyrrolidine-1-carbonyl]amino]cyclobutyl]car-bamoyl]-3-chloro-phenyl]-5-[1-(cyanomethyl)-3-(trifluoromethyl)pyrazol-4-yl]-1-methyl-imidazole-2-carboxamide; formic acid]: the IC90 was 479 nM.

For the molecule `Cn1c(-c2cn(C3CC3)nc2C(F)(F)F)cnc1C(=O)Nc1ccc(C(=O)N2CCN(C(=O)N3CCC(N)CC3)CC2)c(Cl)c1` [Example 362, N-(4-(4-(4-aminopiperidine-1-carbonyl)piperazine-1-carbonyl)-3-chlorophenyl)-5-(1-cyclopropyl-3-(trifluoromethyl)-1H-pyrazol-4-yl)-1-methyl-1H-imidazole-2-carboxamide formate], the IC90 was found to be 480 nM.

Turning to `Cn1c(-c2cn(CC(F)F)nc2C(F)(F)F)cnc1C(=O)Nc1ccc(C(=O)N2CCC23CN(C(=O)C2CCNCC2)C3)c(Cl)c1` [Example 363, N-(3-chloro-4-(6-(piperidine-4-carbonyl)-1,6-diazaspiro[3.3]heptane-1-carbonyl)phenyl)-5-(1-(2,2-difluoroethyl)-3-(trifluoromethyl)-1H-pyrazol-4-yl)-1-methyl-1H-imidazole-2-carboxamide formate], the IC90 came out at 481 nM.

On to `Cn1c(-c2cn(CC(F)F)nc2C(F)F)cnc1C(=O)Nc1ccc(C(=O)N2CCN(C(=O)[C@H]3[C@@H]4CNC[C@@H]43)CC2)c(Cl)c1` [Example 364, N-(4-(4-((1R,5S,6r)-3-azabicyclo[3.1.0]hexane-6-carbonyl)piperazine-1-carbonyl)-3-chlorophenyl)-5-(1-(2,2-difluoroethyl)-3-(difluoromethyl)-1H-pyrazol-4-yl)-1-methyl-1H-imidazole-2-carboxamide formate], for which the IC90 came to 482 nM.

Turning to `CNC1CCN(C(=O)c2ccc(NC(=O)c3ncc(-c4cn(C5CC5)nc4C(F)(F)F)n3C)cc2Cl)CC1` [Example 366, N-(3-chloro-4-(4-(methylamino)piperidine-1-carbonyl)phenyl)-5-(1-cyclopropyl-3-(trifluoromethyl)-1H-pyrazol-4-yl)-1-methyl-1H-imidazole-2-carboxamide formate], the concentration for an effect of 90% (IC90) amounted to 483 nM.

In the case of `Cn1c(-c2cn(C3CC3)nc2C(F)(F)F)cnc1C(=O)Nc1ccc(C(=O)N2CCN(C(=O)[C@@H]3C[C@H](F)CN3)CC2)c(Cl)c1` [Example 367, N-(3-chloro-4-(4-((2S,4S)-4-fluoropyrrolidine-2-carbonyl)piperazine-1-carbonyl)phenyl)-5-(1-cyclopropyl-3-(trifluoromethyl)-1H-pyrazol-4-yl)-1-methyl-1H-imidazole-2-carboxamide hydrochloride], the IC90 is 484 nM.

With `CN(C(=O)c1ccc(NC(=O)c2ncc(-c3cn(C4CC4(F)F)nc3C(F)(F)F)n2C)cc1Cl)C1CCNCC1` (stereo not drawn) [Example 368, N-(3-chloro-4-(methyl(piperidin-4-yl)carbamoyl)phenyl)-5-(1-(2,2-difluorocyclopropyl)-3-(trifluoromethyl)-1H-pyrazol-4-yl)-1-methyl-1H-imidazole-2-carboxamide formate], the IC90 was determined as 484 nM.

As to `Cn1c(-c2cn(CC3CC3)nc2C(F)(F)F)cnc1C(=O)Nc1ccc(C(=O)N2CCN(C(=O)N[C@@H]3CC[C@@H](N)C3)CC2)c(Cl)c1` [Example 369, N-((1R,3R)-3-aminocyclopentyl)-4-(2-chloro-4-(5-(1-(cyclopropylmethyl)-3-(trifluoromethyl)-1H-pyrazol-4-yl)-1-methyl-1H-imidazole-2-carboxamido)benzoyl)piperazine-1-carboxamide], the IC90 was determined as 485 nM.

Turning to `Cn1c(-c2cn(C3CC3)nc2C(F)(F)F)cnc1C(=O)Nc1ccc(C(=O)N2CCC(N3CCC(O)CC3)CC2)c(Cl)c1` [Example 370], the IC90 came to 485 nM.

`Cn1c(-c2cn(CC3CCC3)nc2C(F)(F)F)cnc1C(=O)Nc1ccc(C(=O)N2CCNCC2)c(Cl)c1` [Example 371, N-(3-chloro-4-(piperazine-1-carbonyl)phenyl)-5-(1-(cyclobutylmethyl)-3-(trifluoromethyl)-1H-pyrazol-4-yl)-1-methyl-1H-imidazole-2-carboxamide dihydrochloride]: the IC90 worked out at 485 nM.

For `Cn1c(-c2cn(CC#N)nc2C(F)(F)F)cnc1C(=O)Nc1ccc(C(=O)N[C@H]2CC[C@@H](NC(=O)[C@H]3C[C@H](N)C3)CC2)c(Cl)c1` [Example 372, rac-N-(4-(((1S,4s)-4-((1r,3R)-3-aminocyclobutane-1-carboxamido)cyclohexyl)car-bamoyl)-3-chlorophenyl)-5-(1-(cyanomethyl)-3-(trifluoromethyl)-1H-pyrazol-4-yl)-1-methyl-1H-imidazole-2-carboxamide 2,2,2-trifluoroacetate], the 90% effect concentration (IC90) is 486 nM.

Turning to `Cn1c(-c2cn(CC3CC3)nc2C(F)(F)F)cnc1C(=O)Nc1ccc(C(=O)NCC2CN(C(=O)N[C@H]3C[C@@H](N)C3)C2)c(Cl)c1` [Example 373, rac-N-(4-(((1-(((1s,3s)-3-aminocyclobutyl)carbamoyl)aze-tidin-3-yl)methyl)carbamoyl)-3-chlorophenyl)-5-(1-(cyclopropylmethyl)-3-(trifluoromethyl)-1H-pyrazol-4-yl)-1-methyl-1H-imidazole-2-carboxamide formate], the IC90 worked out at 494 nM.

In the case of `CCn1cc(-c2cnc(C(=O)Nc3ccc(C(=O)N4CCN(C(=O)C5CCNCC5)CC4)c(Br)c3)n2C)c(C(F)(F)F)n1` [Example 374, N-(3-bromo-4-(4-(piperidine-4-carbonyl)piperazine-1-carbonyl)phenyl)-5-(1-ethyl-3-(trifluoromethyl)-1H-pyrazol-4-yl)-1-methyl-1H-imidazole-2-carboxamide hydrochloride], the IC90 was determined as 495 nM.

As for `Cn1c(-c2cn(CC(F)F)nc2C(F)(F)F)cnc1C(=O)Nc1ccc(C(=O)N2CCN(CC(=O)NCCN)CC2)c(Cl)c1` [Example 375, N-(4-(4-(2-((2-aminoethyl)amino)-2-oxoethyl)piperazine-1-carbonyl)-3-chlorophenyl)-5-(1-(2,2-difluoroethyl)-3-(trifluoromethyl)-1H-pyrazol-4-yl)-1-methyl-1H-imidazole-2-carboxamide formate], the IC90 is 495 nM.

As to `Cn1c(-c2cn(C3CC3)nc2C(F)(F)F)cnc1C(=O)Nc1ccc(C(=O)NCCCCCCNC(=O)NCC2CNC2)c(Cl)c1` [Example 378, N-[4-[6-(azetidin-3-ylmethylcarbamoylamino)hexyl-carbamoyl]-3-chlorophenyl]-5-[1-cyclopropyl-3-(trifluoromethyl)pyrazol-4-yl]-1-methylimidazole-2-carboxamide;formic acid], the concentration for an effect of 90% (IC90) is 497 nM.

Turning to `Cn1c(-c2cn(C3CC3C(F)(F)F)nc2C(F)(F)F)cnc1C(=O)Nc1ccc(C(=O)N2CCN(C(=O)C3CCNCC3)CC2)c(Cl)c1` (stereo not drawn) [Example 379, N-(3-chloro-4-(4-(piperidine-4-carbonyl)piperazine-1-carbonyl)phenyl)-1-methyl-5-(3-(trifluoromethyl)-1-(2-(trifluoromethyl)cyclopropyl)-1H-pyrazol-4-yl)-1H-imidazole-2-carboxamide formate], the IC90 was found to be 499 nM.

For `Cn1c(-c2cn([C@@H]3CC3(F)F)nc2C(F)(F)F)cnc1C(=O)Nc1ccc(C(=O)N[C@H]2[C@@H]3CN(C(=O)N[C@H]4CNC[C@@H]4O)C[C@@H]32)c(Cl)c1` [Example 380, (1R,5S,6R)-6-(2-chloro-4-(5-(1-((R)-2,2-difluorocyclopropyl)-3-(trifluoromethyl)-1H-pyrazol-4-yl)-1-methyl-1H-imidazole-2-carboxamido)benzamido)-N-((3S,4S)-4-hydroxypyrrolidin-3-yl)-3-azabicyclo[3.1.0]hexane-3-carboxamide], the concentration for an effect of 90% (IC90) stood at 104 nM.

Take `Cn1c(-c2cn(C3CC3)nc2C(F)(F)F)cnc1C(=O)Nc1ccc(C(=O)N2CCN(C(=O)[C@H]3[C@@H]4CNC[C@@H]43)CC2)c(Cl)c1` [Example 383, N-[3-chloro-4-[4-[rac-(1R,5S)-3-azabicyclo[3.1.0]hexane-6-carbonyl]piperazine-1-carbonyl]phenyl]-5-[1-cyclopropyl-3-(trifluoromethyl)pyrazol-4-yl]-1-methylimidazole-2-carboxamide;hydrochloride]: the IC90 was 234 nM.

As usually defined, the IC90 is the point of the concentration-response curve where the effect stands at 90%.
